The record followed here is patent publication US20050043378A1, “LTA4H modulators” (priority 2003, published 2005).

Assay [1] deals with neutrophil influx (myeloperoxidase, MPO). Nature of the assay: Murine arachidonic acid-induced inflammation model: neutrophil influx (myeloperoxidase activity in ear biopsies). The assay is classed as in vivo, female Balb/c mice. Particulars: Mus musculus, 30 mg/kg oral gavage 60 min before topical arachidonic acid to ear, ear biopsies after 3 h, vs animals without inhibitor, read-out: % Inh. MPO.

Assay [2] concerns LTB4 production by calcium ionophore-stimulated murine blood. Description: LTB4 production by calcium ionophore-stimulated murine blood for LTA4H inhibitor activity. The assay is classed as cell-based, CD-1 mice. Conditions: diluted CD-1 mouse whole blood, A23187 stimulation, LTB4 by immunoassay; read-out: IC50.
Assay [3] concerns the target T1, recombinant human LTA4 hydrolase (rhLTA4H) (Homo sapiens, UniProt P09960).
T1 construct: made in house; host or cells: Spodoptera frugiperda (Sf-9) cells, baculovirus (pFastBac1)
T1 sequence (P09960 1-611): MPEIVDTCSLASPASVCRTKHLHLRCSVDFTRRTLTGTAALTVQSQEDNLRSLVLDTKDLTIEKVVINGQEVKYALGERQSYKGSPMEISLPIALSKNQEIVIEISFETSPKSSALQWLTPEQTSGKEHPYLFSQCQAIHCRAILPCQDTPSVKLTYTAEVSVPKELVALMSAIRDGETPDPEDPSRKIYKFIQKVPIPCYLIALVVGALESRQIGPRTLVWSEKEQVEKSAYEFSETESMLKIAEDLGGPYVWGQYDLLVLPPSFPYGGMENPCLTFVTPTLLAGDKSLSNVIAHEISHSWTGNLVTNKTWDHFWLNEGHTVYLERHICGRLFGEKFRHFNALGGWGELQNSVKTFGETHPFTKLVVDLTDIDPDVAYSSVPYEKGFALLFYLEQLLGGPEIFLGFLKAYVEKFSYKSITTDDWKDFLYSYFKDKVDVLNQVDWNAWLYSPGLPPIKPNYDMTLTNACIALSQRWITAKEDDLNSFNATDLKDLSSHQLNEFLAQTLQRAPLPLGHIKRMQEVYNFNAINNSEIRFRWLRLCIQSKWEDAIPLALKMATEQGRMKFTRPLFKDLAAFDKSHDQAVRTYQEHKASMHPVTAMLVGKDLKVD
Nature of the assay: Recombinant human LTA4 hydrolase assay for LTA4 hydrolase inhibitor activity.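 Note: enzyme expressed in Sf-9 insect cells, compound preincubated 10 min with enzyme, 10 min reaction at room temperature, uninhibited reaction as positive control, enzyme-free blank as negative control.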 It counts as biochemical. Particulars: LTA4 substrate, LTB4 by immunoassay, average of one to three determinations.

The test system of assay [4] is ex vivo stimulated LTB4 production in blood. Description: Murine arachidonic acid-induced inflammation model: ex vivo stimulated LTB4 production. Also noted: species or system female Balb/c mice. Particulars: Mus musculus; 30 mg/kg oral gavage; blood taken 3 h after arachidonic acid, ex vivo A23187 stimulation; vs animals without inhibitor; read-out: % Inh. LTB4.

Each structure is given as a SMILES string. Where a name gives a salt, the structure may show the parent alone.

The term IC50 denotes the concentration at which inhibition is half-maximal. Consider `c1ccc2oc(Oc3ccc(OCCN4CCCCC4)cc3)nc2c1` [Example 11, 2-[4-(2-Piperidin-1-yl-ethoxy)-phenoxy]-benzooxazole], for which the inhibition in vivo at 30 mg/kg in assay [1] came out at 95%. In addition, the 50% inhibitory concentration (IC50) in assay [2] was determined as 0.044 µM.

For the compound `OCC1CCN(CCOc2ccc(Oc3nc4ccccc4o3)cc2)CC1` [Example 13, (1-{2-[4-(Benzooxazol-2-yloxy)-phenoxy]ethyl}-piperidin-4-yl)-methanol], the half-maximal inhibitory concentration (IC50) in assay [2] worked out at 0.041 µM.

`CN(C)CCOc1ccc(Oc2nc3ccccc3o2)cc1` [Example 46, {2-[4-(Benzooxazol-2-yloxy)-phenoxy]-ethyl}-dimethyl-amine]: the IC50 stood at 0.029 µM in assay [2] and 0.017 µM in assay [3].

On to `OC1CCN(CCc2ccc(Oc3nc4ccccc4o3)cc2)CC1` [Example 94, 1-{2-[4-(Benzooxazol-2-yloxy)-phenyl]-ethyl}-piperidin-4-ol], for which the figures for the concentration for half-maximal inhibition (IC50) in assay [2] and in assay [3] were 0.072 µM and 0.001 µM, respectively.

`OC1CCN(CCc2ccc(Oc3nc4ccccc4[nH]3)cc2)CC1` [Example 127, 1-{2-[4-(1H-Benzoimidazol-2-yloxy)-phenyl]-ethyl}-piperidin-4-ol]: in assay [2], the IC50 was found to be 0.376 µM.

In the case of `OCC1CCN(CCOc2ccc(Oc3nc4ccccc4[nH]3)cc2)CC1` [Example 133, (1-{2-[4-(1H-Benzoimidazol-2-yloxy)-phenoxy]-ethyl}-piperidin-4-yl)-methanol], the 50% inhibitory concentration (IC50) in assay [2] turned out to be 0.29 µM; in assay [3], 0.111 µM.

As to `OC1CCN(CCOc2ccc(Oc3nc4ccccc4[nH]3)cc2)CC1` [Example 134, 1-{2-[4-(1H-Benzoimidazol-2-yloxy)-phenoxy]-ethyl}-piperidin-4-ol], the IC50 in assay [2] amounted to 0.436 µM; in assay [3], 0.11 µM.

For the compound `O=C(O)C1CCCCN1CCc1ccc(Oc2nc3ccccc3s2)cc1` (stereo not drawn) [Example 156, 1-{2-[4-(Benzothiazol-2-yloxy)-phenyl]-ethyl}-piperidine-2-carboxylic acid], the IC50 worked out at 2 µM in assay [2] and 0.007 µM in assay [3].

As to `OCC1CCCN(CCc2ccc(Oc3nc4ccccc4s3)cc2)C1` (stereo not drawn) [Example 161, (1-{2-[4-(Benzothiazol-2-yloxy)-phenyl]-ethyl}-piperidin-3-yl)-methanol], the figures for the IC50 in assay [2] and in assay [3] were 0.1 µM and 0.001 µM, respectively.

Take `OCCCN(CCc1ccc(Oc2nc3ccccc3s2)cc1)C1CC1` [Example 198, 3-({2-[4-(Benzothiazol-2-yloxy)-phenyl]-ethyl}-cyclopropyl-amino)-propan-1-ol]: the IC50 in assay [2] turned out to be 0.039 µM.

As for `O=C1C[C@H](O)CN1C1CCN(CCOc2ccc(Oc3nc4ccccc4s3)cc2)CC1` [Example 207, (S)-1-(1-{2-[4-(Benzothiazol-2-yloxy)-phenoxy]-ethyl}-piperidin-4-yl)-4-hydroxy-pyrrolidin-2-one], the 50% inhibitory concentration (IC50) in assay [2] was 0.081 µM; in assay [3], 0.016 µM.

`O=C(O)C1CCN(Cc2ccc(Oc3nc4ccccc4s3)cc2)CC1` [Example 250, 1-[4-(Benzothiazol-2-yloxy)-benzyl]-piperidine-4-carboxylic acid]: in assay [1], the inhibition in vivo at 30 mg/kg amounted to 94%. The inhibition at 30 mg/kg in assay [4] came out at 80%.

In the case of `O=C1C[C@@H](O)CN1C1CCN(CCOc2ccc(Oc3nc4ccccc4s3)cc2)CC1` [Example 261, (R) 1-(1-{2-[4-(Benzothiazol-2-yloxy)-phenoxy]-ethyl}-piperidin-4-yl)-4-hydroxy-pyrrolidin-2-one], the half-inhibitory concentration (IC50) in assay [2] came out at 0.081 µM; in assay [3], 0.033 µM.

Turning to `c1ccc2oc(Oc3ccc(CN4CCCCC4)cc3)nc2c1` [Example 271, 2-(4-Piperidin-1-ylmethyl-phenoxy)-benzooxazole], the half-maximal inhibitory concentration (IC50) in assay [3] worked out at 0.002 µM.

Consider `NC(=O)C1CCN(Cc2ccc(Oc3nc4ccccc4s3)cc2)CC1` [Example 274, 1-[4-(Benzothiazol-2-yloxy)-benzyl]-piperidine-4-carboxylic acid amide], for which the inhibition in vivo at 30 mg/kg in assay [1] turned out to be 87%. Also, in assay [4], the inhibition at 30 mg/kg stood at 93%.

Regarding `NC1CCC1C(=O)NCC1CCN(Cc2ccc(Oc3nc4ccccc4s3)cc2)CC1` (stereo not drawn) [Example 285, 2-Amino-cyclobutanecarboxylic acid {1-[4-(benzothiazol-2-yloxy)-benzyl]-piperidin-4-ylmethyl}-amide dihydrochloride], the half-inhibitory concentration (IC50) in assay [3] was 0.076 µM.

With `CCN(CCO)Cc1ccc(Oc2nc3ccccc3s2)cc1` [Example 287, 2-{[4-(Benzothiazol-2-yloxy)-benzyl]-ethyl-amino}-ethanol], the IC50 in assay [3] stood at 0.028 µM.

Consider `OCCC1CCCCN1Cc1ccc(Oc2nc3ccccc3s2)cc1` (stereo not drawn) [Example 288, 2-{1-[4-(Benzothiazol-2-yloxy)-benzyl]-piperidin-2-yl}-ethanol], for which the 50% inhibitory concentration (IC50) in assay [2] came to 0.057 µM; in assay [3], 0.004 µM.

With `CCN(CC)Cc1ccc(Oc2nc3ccccc3s2)cc1` [Example 294, [4-(Benzothiazol-2-yloxy)-benzyl]-diethyl-amine], the IC50 in assay [3] amounted to 0.006 µM.

Turning to `OCCC1CCN(Cc2ccc(Oc3nc4ccccc4s3)cc2)CC1` [Example 296, 2-{1-[4-(Benzothiazol-2-yloxy)-benzyl]-piperidin-4-yl}-ethanol], the half-maximal inhibitory concentration (IC50) in assay [2] was 0.133 µM; in assay [3], 0.033 µM.

On to `OCC1CCCCN1Cc1ccc(Oc2nc3ccccc3s2)cc1` (stereo not drawn) [Example 298, {1-[4-(Benzothiazol-2-yloxy)-benzyl]-piperidin-2-yl}-methanol], for which the IC50 in assay [2] was found to be 0.069 µM; in assay [3], 0.015 µM.

For the compound `OCC1CCCN(Cc2ccc(Oc3nc4ccccc4s3)cc2)C1` (stereo not drawn) [Example 302, {1-[4-(Benzothiazol-2-yloxy)-benzyl]-piperidin-3-yl}-methanol], the values for the half-maximal inhibitory concentration (IC50) in assay [2] and in assay [3] were 0.212 µM and 0.06 µM, respectively.

Regarding `O=C1C[C@@H](O)CN1C1CCN(CCc2ccc(Oc3nc4ccccc4s3)cc2)CC1` [Example 334, (R)-1-(1-{2-[4-(Benzothiazol-2-yloxy)-phenyl]-ethyl}-piperidin-4-yl)-4-hydroxy-pyrrolidin-2-one], the half-inhibitory concentration (IC50) was determined as 0.453 µM in assay [2] and 0.1 µM in assay [3].

As for `OC1(c2ccccc2)CCN(Cc2ccc(Oc3nc4ccccc4s3)cc2)CC1` [Example 358, 1-[4-(Benzothiazol-2-yloxy)-benzyl]-4-phenyl-piperidin-4-ol], the IC50 in assay [3] was found to be 0.011 µM.

In the case of `COC(=O)NC1CCN(Cc2ccc(Oc3nc4ccccc4s3)cc2)CC1` [Example 363, {1-[4-(Benzothiazol-2-yloxy)-benzyl]-piperidin-4-yl}-carbamic acid methyl ester], in assay [3], the 50% inhibitory concentration (IC50) was 0.004 µM.

As to `O=C(O)CN1CCN(Cc2ccc(Oc3nc4ccccc4s3)cc2)CC1` [Example 366, {4-[4-(Benzothiazol-2-yloxy)-benzyl]-piperazin-1-yl}-acetic acid], the IC50 in assay [3] came to 0.039 µM.

For the compound `OCCN(CCc1ccc(Oc2nc3ccccc3s2)cc1)CC1CC1` [Example 380, 2-({2-[4-(Benzothiazol-2-yloxy)-phenyl]-ethyl}-cyclopropylmethyl-amino)-ethanol], the half-inhibitory concentration (IC50) in assay [2] amounted to 0.017 µM; in assay [3], 0.006 µM.

Regarding `c1ccc2sc(Oc3ccc(CCN(CCCc4nn[nH]n4)C4CC4)cc3)nc2c1` [Example 389, {2-[4-(Benzothiazol-2-yloxy)-phenyl]-ethyl}-cyclopropyl-[3-(2H-tetrazol-5-yl)-propyl]-amine], in assay [3], the half-inhibitory concentration (IC50) stood at 0.002 µM.

On to `O=C(O)CCCCCN(CCc1ccc(Oc2nc3ccccc3s2)cc1)C1CC1` [Example 419, 6-({2-[4-(Benzothiazol-2-yloxy)-phenyl]-ethyl}-cyclopropyl-amino)-hexanoic acid], for which the IC50 in assay [3] stood at 0.004 µM.

`CCN(CCCN1CCCC1=O)Cc1ccc(Oc2nc3ccccc3s2)cc1` [Example 437, 1-(3-{[4-(Benzothiazol-2-yloxy)-benzyl]-ethyl-amino}-propyl)-pyrrolidin-2-one]: the 50% inhibitory concentration (IC50) came to 0.105 µM in assay [2] and 0.021 µM in assay [3].

For `CCOC(=O)NC1CCN(Cc2ccc(Oc3nc4ccccc4s3)cc2)CC1` [Example 462, {1-[4-(Benzothiazol-2-yloxy)-benzyl]-piperidin-4-yl}-carbamic acid ethyl ester], the IC50 in assay [2] was 0.144 µM; in assay [3], 0.027 µM.

Take `NC(=S)NC1CCN(Cc2ccc(Oc3nc4ccccc4s3)cc2)CC1` [Example 479, {1-[4-(Benzothiazol-2-yloxy)-benzyl]-piperidin-4-yl}-thiourea]: the IC50 in assay [3] turned out to be 0.007 µM.

As to `CCN(CC)CCOc1ccc(Oc2nc3ccccc3o2)cc1` [Example 484, {2-[4-(Benzooxazol-2-yloxy)-phenoxy]-ethyl}-diethyl-amine], the figures for the IC50 in assay [2] and in assay [3] were 0.011 µM and 0.019 µM, respectively.

On to `CCOC(=O)C1CCN(CCOc2ccc(Oc3nc4ccccc4[nH]3)cc2)CC1` [Example 485, 1-{2-[4-(1H-Benzoimidazol-2-yloxy)-phenoxy]-ethyl}-piperidine-4-carboxylic acid ethyl ester], for which the IC50 in assay [3] amounted to 0.039 µM.
